Where two headings read alike, the source gives them in different places.
How the values were obtained:
[1] = during its manipulation; cited from earlier work
[2] = Applicant's experimental study of the stability of crystal Form A of CN114940682A; type: physicochemical
[3] = type: physicochemical; details: for chemical stability (assessment in words) / physical stability (assessment in words): 10 days under long-term and accelerated conditions; for product purity: after 10 days at 25° C./60% RH and 40° C./75% RH; for purity: sealed and stored at −20° C. for 120 days
[4] = Observation of electrostatic properties of the crystal forms (glass bottle storage, weighing); type: physicochemical; details: for electrostatic effect (sticking to scoop and weighing paper): during the weighing; for wall-hanging phenomenon: stored in a glass bottle
[5] = Stability test of crystal form I of lurbinectedin (XRPD and HPLC purity after storage); type: physicochemical
[6] = 10 days under long-term (25° C./60% RH) and accelerated (40° C./75% RH) conditions
[7] = Group 6, sealed and stored at −20° C. for 120 days
[8] = Group 2, kept in dark, sealed, 2-8° C. for 12 months
[9] = Group 3, kept in dark, sealed, −20° C. for 20 months
[10] = stored at −20° C. in the dark and sealed, and at 2-8° C. in the dark and sealed

Structure (SMILES) | XRPD crystal form [3, 6] | chemical stability (assessment in words) [3] | physical stability (assessment in words) [3] | HPLC purity ([3]; Group 1, 0 day) [%] | HPLC purity ([3]; Group 2, 25° C./60% RH-5 days) [%] | HPLC purity ([3]; Group 3, 25° C./60% RH-10 days) [%] | HPLC purity ([3]; Group 4, 40° C./75% RH-5 days) [%] | HPLC purity ([3]; Group 5, 40° C./75% RH-10 days) [%] | HPLC purity [3, 7] [%] | product purity [3] | purity [3] | XRPD crystal form ([3]; sealed, −20° C. for 120 days) | electrostatic effect (sticking to scoop and weighing paper) [4] | wall-hanging phenomenon [4] | further results
COc1ccc2[nH]c3c(c2c1)CCN[C@]31CS[C@@H]2c3c(OC(C)=O)c(C)c4c(c3[C@H](COC1=O)N1[C@@H]2[C@H]2c3c(cc(C)c(OC)c3O)C[C@@H]([C@@H]1O)N2C)OCO4 [Form A, lurbinectedin] |  |  |  |  |  |  |  |  |  |  |  |  |  |  | static electricity [1]: has static electricity
COc1ccc2[nH]c3c(c2c1)CCN[C@]31CS[C@@H]2c3c(OC(C)=O)c(C)c4c(c3[C@H](COC1=O)N1[C@@H]2[C@H]2c3c(cc(C)c(OC)c3O)C[C@@H]([C@@H]1O)N2C)OCO4 [crystal Form A, lurbinectedin] |  |  |  |  |  |  |  |  |  |  |  |  |  |  | stability of the crystal form ([2]; at room temperature, converts into other crystal forms readily): highly unstable; stability of the crystal form ([2]; at −20° C.): stable
COc1ccc2[nH]c3c(c2c1)CCN[C@]31CS[C@@H]2c3c(OC(C)=O)c(C)c4c(c3[C@H](COC1=O)N1[C@@H]2[C@H]2c3c(cc(C)c(OC)c3O)C[C@@H]([C@@H]1O)N2C)OCO4 [crystal form B, lurbinectedin, reference compound] | remained unchanged | relatively poor | excellent | 99.62 | 99.44 | 99.05 | 99.13 | 99.24 | 99.60 | decreased | above 99% | remained unchanged | obvious electrostatic effect | exhibits wall-hanging phenomenon | XRPD crystal form ([3]; 10 days under long-term (25° C./60% RH) and accelerated (40° C./75% RH) conditions, listed as Crystal form B): unchanged for 10; XRPD crystal form ([3]; sealed, −20° C. for 120 days, listed as Crystal form B): unchanged
COc1ccc2[nH]c3c(c2c1)CCN[C@]31CS[C@@H]2c3c(OC(C)=O)c(C)c4c(c3[C@H](COC1=O)N1[C@@H]2[C@H]2c3c(cc(C)c(OC)c3O)C[C@@H]([C@@H]1O)N2C)OCO4 [crystal form I, lurbinectedin] |  |  |  |  |  |  |  |  |  |  |  |  | do not show electrostatic effect or the effect is not obvious | no wall-hanging phenomenon or the phenomenon is not obvious | Crystal form of lurbinectedin (XRPD) ([5]; Group 1, initial moment): crystal form I; HPLC purity ([5]; Group 1, initial moment): 99.91%; Crystal form of lurbinectedin (XRPD) [5, 8]: crystal form I; HPLC purity [5, 8]: 99.68%; Crystal form of lurbinectedin (XRPD) [5, 9]: crystal form I; HPLC purity [5, 9]: 99.65%; time the crystal form remains stable ([5]; stored at 2-8° C. or −20° C.): at least 12 months; crystal form [5, 10]: remained unchanged; product purity [5, 10]: above 99%
COc1ccc2[nH]c3c(c2c1)CCN[C@]31CS[C@@H]2c3c(OC(C)=O)c(C)c4c(c3[C@H](COC1=O)N1[C@@H]2[C@H]2c3c(cc(C)c(OC)c3O)C[C@@H]([C@@H]1O)N2C)OCO4 [crystal form II, lurbinectedin] | remained unchanged | excellent | excellent | 99.59 | 99.40 | 99.41 | 99.41 | 99.41 | 99.58 | above 99% | above 99% | remained unchanged | do not show electrostatic effect or the effect is not obvious | no wall-hanging phenomenon or the phenomenon is not obvious | XRPD crystal form ([3]; sealed, −20° C. for 120 days, listed as Crystal form II): unchanged
COc1ccc2[nH]c3c(c2c1)CCN[C@]31CS[C@@H]2c3c(OC(C)=O)c(C)c4c(c3[C@H](COC1=O)N1[C@@H]2[C@H]2c3c(cc(C)c(OC)c3O)C[C@@H]([C@@H]1O)N2C)OCO4 [crystal form III, lurbinectedin] | remained unchanged | excellent | excellent | 99.61 | 99.48 | 99.42 | 99.48 | 99.37 | 99.60 | above 99% | above 99% | remained unchanged | do not show electrostatic effect or the effect is not obvious | no wall-hanging phenomenon or the phenomenon is not obvious | XRPD crystal form ([3]; sealed, −20° C. for 120 days, listed as Crystal form III): unchanged
COc1ccc2[nH]c3c(c2c1)CCN[C@]31CS[C@@H]2c3c(OC(C)=O)c(C)c4c(c3[C@H](COC1=O)N1[C@@H]2[C@H]2c3c(cc(C)c(OC)c3O)C[C@@H]([C@@H]1O)N2C)OCO4 [crystal form IV, lurbinectedin] | remained unchanged | excellent | excellent | 99.90 | 99.86 | 99.74 | 99.79 | 99.78 | 99.91 | above 99% | above 99% | remained unchanged | do not show electrostatic effect or the effect is not obvious | no wall-hanging phenomenon or the phenomenon is not obvious | XRPD crystal form ([3]; sealed, −20° C. for 120 days, listed as Crystal form IV): unchanged
COc1ccc2[nH]c3c(c2c1)CCN[C@]31CS[C@@H]2c3c(OC(C)=O)c(C)c4c(c3[C@H](COC1=O)N1[C@@H]2[C@H]2c3c(cc(C)c(OC)c3O)C[C@@H]([C@@H]1O)N2C)OCO4 [crystal form V, lurbinectedin] |  |  |  |  |  |  |  |  |  |  |  |  | do not show electrostatic effect or the effect is not obvious | no wall-hanging phenomenon or the phenomenon is not obvious | 

— patent US20260138992A1, “LUR[…] FORM AND METHOD FOR PREPARING SAME” (priority 2022, published 2026)
